Data taken from ChEMBL document CHEMBL1201862, “PubChem BioAssay data set” (2004).
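Five compound concentrations were applied to cells in 96-well plates for 48 hours; endpoints were derived by simple linear interpolation of the resulting dose-response curve. GI50: concentration for 50% inhibition of growth.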 The source made the active and inactive calls. Rule as the data show it: active = GI50 up to about 1.1 µM and inactive = higher.

How the values were obtained:
Experiment in all cases: DTP human tumour cell line panel, 48 h
UACC-62 = system: UACC-62
IGROV-1 = system: IGROV-1
SK-MEL-5 = system: SK-MEL-5
SK-MEL-28 = system: SK-MEL-28
MOLT-4 = system: MOLT-4
HCC 2998 = system: HCC 2998
MDA-MB-435 = system: MDA-MB-435
K562 = system: K562
BT-549 = system: BT-549
ACHN = system: ACHN
MDA-MB-231 = system: MDA-MB-231
PC-3 = system: PC-3
Malme-3M = system: Malme-3M
COLO 205 = system: COLO 205
CAKI-1 = system: CAKI-1
RPMI-8226 = system: RPMI-8226
RXF 393 = system: RXF 393
KM12 = system: KM12
DU-145 = system: DU-145
OVCAR-5 = system: OVCAR-5
NCI-H460 = system: NCI-H460
SK-MEL-2 = system: SK-MEL-2
HCT-116 = system: HCT-116
A498 = system: A498
UACC-257 = system: UACC-257
HCT-15 = system: HCT-15
UO-31 = system: UO-31
HOP-92 = system: HOP-92
SR = system: SR
CCRF-CEM = system: CCRF-CEM
SF-268 = system: SF-268
SW-620 = system: SW-620
OVCAR-3 = system: OVCAR-3
OVCAR-4 = system: OVCAR-4
SN12C = system: SN12C
MCF7 = system: MCF7
EKVX = system: EKVX
NCI-H23 = system: NCI-H23
SK-OV-3 = system: SK-OV-3
SNB-19 = system: SNB-19
HL-60 = system: HL-60
LOX IMVI = system: LOX IMVI
HOP-62 = system: HOP-62
SF-295 = system: SF-295
NCI-H522 = system: NCI-H522
786-0 = system: 786-0
U-251 = system: U-251
NCI-H226 = system: NCI-H226
HT-29 = system: HT-29
TK-10 = system: TK-10
MDA-N = system: MDA-N
M14 = system: M14
SF-539 = system: SF-539
Hs-578T = system: Hs-578T
SNB-75 = system: SNB-75
A549 = system: A549
NCI/ADR-RES = system: NCI/ADR-RES
OVCAR-8 = system: OVCAR-8

[N-]=[N+]=CC(=O)OC1CCOCC1
GI50 (UACC-62): > 100 µM (inactive) | GI50 (IGROV-1): > 100 µM (inactive) | GI50 (SK-MEL-5): > 100 µM (inactive) | GI50 (SK-MEL-28): > 100 µM (inactive) | GI50 (MOLT-4): > 100 µM (inactive) | GI50 (HCC 2998): > 100 µM (inactive) | GI50 (MDA-MB-435): > 100 µM (inactive) | GI50 (K562): > 100 µM (inactive) | GI50 (BT-549): > 100 µM (inactive) | GI50 (ACHN): > 100 µM (inactive) | GI50 (MDA-MB-231): > 100 µM (inactive) | GI50 (PC-3): > 100 µM (inactive) | GI50 (Malme-3M): > 100 µM (inactive) | GI50 (COLO 205): > 100 µM (inactive) | GI50 (CAKI-1): > 100 µM (inactive) | GI50 (RPMI-8226): > 100 µM (inactive) | GI50 (RXF 393): > 100 µM (inactive) | GI50 (KM12): > 100 µM (inactive) | GI50 (DU-145): > 100 µM (inactive) | GI50 (OVCAR-5): > 100 µM (inactive) | GI50 (NCI-H460): > 100 µM (inactive) | GI50 (SK-MEL-2): > 100 µM (inactive) | GI50 (HCT-116): > 100 µM (inactive) | GI50 (A498): > 100 µM (inactive) | GI50 (UACC-257): > 100 µM (inactive) | GI50 (HCT-15): > 100 µM | GI50 (UO-31): > 100 µM (inactive) | GI50 (HOP-92): > 100 µM (inactive) | GI50 (SR): > 100 µM (inactive) | GI50 (CCRF-CEM): > 100 µM (inactive) | GI50 (SF-268): > 100 µM (inactive) | GI50 (SW-620): > 100 µM (inactive) | GI50 (OVCAR-3): > 100 µM (inactive) | GI50 (OVCAR-4): > 100 µM (inactive) | GI50 (SN12C): > 100 µM (inactive) | GI50 (MCF7): > 100 µM (inactive) | GI50 (EKVX): > 100 µM (inactive) | GI50 (NCI-H23): > 100 µM (inactive) | GI50 (SK-OV-3): > 100 µM (inactive) | GI50 (SNB-19): > 100 µM (inactive) | GI50 (HL-60): > 100 µM (inactive) | GI50 (LOX IMVI): > 100 µM (inactive) | GI50 (HOP-62): > 100 µM (inactive) | GI50 (SF-295): > 100 µM (inactive) | GI50 (NCI-H522): > 100 µM (inactive) | GI50 (786-0): > 100 µM (inactive) | GI50 (U-251): > 100 µM (inactive) | GI50 (NCI-H226): > 100 µM (inactive) | GI50 (HT-29): > 100 µM (inactive) | GI50 (TK-10): > 100 µM (inactive) | GI50 (MDA-N): > 100 µM (inactive)

Cc1ccc(-c2c(C#N)c(-c3ccccc3)c(C#N)c(=O)n2NS(=O)(=O)c2ccc(C)cc2)cc1
GI50 (UACC-62): 23.3 µM (inactive) | GI50 (IGROV-1): 48.1 µM (inactive) | GI50 (SK-MEL-5): 12.6 µM (inactive) | GI50 (SK-MEL-28): 52.2 µM (inactive) | GI50 (MOLT-4): 12.9 µM (inactive) | GI50 (HCC 2998): 19.9 µM (inactive) | GI50 (MDA-MB-435): 48.9 µM (inactive) | GI50 (K562): 40.3 µM (inactive) | GI50 (BT-549): 70.1 µM (inactive) | GI50 (ACHN): 33.3 µM (inactive) | GI50 (MDA-MB-231): > 100 µM (inactive) | GI50 (PC-3): 35 µM (inactive) | GI50 (Malme-3M): > 100 µM (inactive) | GI50 (COLO 205): 95.9 µM (inactive) | GI50 (CAKI-1): 48.4 µM (inactive) | GI50 (RPMI-8226): 2.75 µM (inactive) | GI50 (RXF 393): 62.2 µM (inactive) | GI50 (KM12): 38.5 µM (inactive) | GI50 (OVCAR-5): > 100 µM (inactive) | GI50 (NCI-H460): 15.7 µM (inactive) | GI50 (M14): 31 µM (inactive) | GI50 (SK-MEL-2): 35.7 µM (inactive) | GI50 (HCT-116): 22.9 µM (inactive) | GI50 (A498): 27.4 µM (inactive) | GI50 (UACC-257): 56.1 µM (inactive) | GI50 (HCT-15): 22.2 µM | GI50 (HOP-92): 20.8 µM (inactive) | GI50 (CCRF-CEM): 19.6 µM (inactive) | GI50 (SF-268): > 100 µM (inactive) | GI50 (SW-620): 14.8 µM (inactive) | GI50 (OVCAR-4): 45.7 µM (inactive) | GI50 (SN12C): 61.2 µM (inactive) | GI50 (MCF7): 35.4 µM (inactive) | GI50 (EKVX): 72.1 µM (inactive) | GI50 (SK-OV-3): 79.8 µM (inactive) | GI50 (SNB-19): 5.56 µM (inactive) | GI50 (SF-539): 13.3 µM (inactive) | GI50 (LOX IMVI): 19.8 µM (inactive) | GI50 (HOP-62): 50.4 µM (inactive) | GI50 (SF-295): 24 µM (inactive) | GI50 (NCI-H522): 56.9 µM (inactive) | GI50 (786-0): 44.6 µM (inactive) | GI50 (U-251): 45.2 µM (inactive) | GI50 (NCI-H226): 83.9 µM (inactive) | GI50 (HT-29): 50.6 µM (inactive) | GI50 (Hs-578T): > 100 µM (inactive) | GI50 (SNB-75): > 100 µM (inactive) | GI50 (TK-10): 40.7 µM (inactive) | GI50 (A549): 34.4 µM (inactive) | GI50 (NCI/ADR-RES): > 100 µM (inactive) | GI50 (OVCAR-8): 52.7 µM (inactive)

CC1=CCC[C@H]2[C@](C)(CC3=CC(=O)C(Sc4ccccc4)=CC3=O)[C@@H](C)CC[C@]12C
GI50 (UACC-62): 21.7 µM (inactive) | GI50 (SK-MEL-5): 17.2 µM (inactive) | GI50 (SK-MEL-28): 20.9 µM (inactive) | GI50 (HCC 2998): 20.4 µM (inactive) | GI50 (BT-549): 19.5 µM (inactive) | GI50 (ACHN): 19.2 µM (inactive) | GI50 (MDA-MB-231): 21.4 µM (inactive) | GI50 (PC-3): 23 µM (inactive) | GI50 (COLO 205): 14.5 µM (inactive) | GI50 (CAKI-1): 17.1 µM (inactive) | GI50 (KM12): 41.6 µM (inactive) | GI50 (DU-145): 22.5 µM (inactive) | GI50 (OVCAR-5): 17.1 µM (inactive) | GI50 (NCI-H460): 20 µM (inactive) | GI50 (M14): 16.7 µM (inactive) | GI50 (HCT-116): 16.6 µM (inactive) | GI50 (A498): 19.9 µM (inactive) | GI50 (UACC-257): 15.9 µM (inactive) | GI50 (HCT-15): 19.2 µM | GI50 (UO-31): 15.7 µM (inactive) | GI50 (SR): 21.8 µM (inactive) | GI50 (SW-620): 16.9 µM (inactive) | GI50 (OVCAR-3): 16.6 µM (inactive) | GI50 (OVCAR-4): 19.7 µM (inactive) | GI50 (SN12C): 17.7 µM (inactive) | GI50 (EKVX): 20.2 µM (inactive) | GI50 (SNB-19): 20.5 µM (inactive) | GI50 (SF-539): 19.8 µM (inactive) | GI50 (HOP-62): 16.9 µM (inactive) | GI50 (SF-295): 17.3 µM (inactive) | GI50 (786-0): 18.2 µM (inactive) | GI50 (U-251): 18.1 µM (inactive) | GI50 (NCI-H226): 14.7 µM (inactive) | GI50 (SNB-75): 20.4 µM (inactive) | GI50 (A549): 17.5 µM (inactive) | GI50 (NCI/ADR-RES): 17.1 µM (inactive) | GI50 (MDA-N): 18.5 µM (inactive) | GI50 (OVCAR-8): 13.6 µM (inactive)
